Experimental data reported in BindingDB's records for patent US12178809 (Boehringer Ingelheim International, 2024).

Tests used:
[1] = biological target: T1, Amine oxidase [copper-containing] 3 (Homo sapiens, UniProt Q16853); assay: AOC3 Biochemical Assay
T1 sequence (Q16853 whole entry): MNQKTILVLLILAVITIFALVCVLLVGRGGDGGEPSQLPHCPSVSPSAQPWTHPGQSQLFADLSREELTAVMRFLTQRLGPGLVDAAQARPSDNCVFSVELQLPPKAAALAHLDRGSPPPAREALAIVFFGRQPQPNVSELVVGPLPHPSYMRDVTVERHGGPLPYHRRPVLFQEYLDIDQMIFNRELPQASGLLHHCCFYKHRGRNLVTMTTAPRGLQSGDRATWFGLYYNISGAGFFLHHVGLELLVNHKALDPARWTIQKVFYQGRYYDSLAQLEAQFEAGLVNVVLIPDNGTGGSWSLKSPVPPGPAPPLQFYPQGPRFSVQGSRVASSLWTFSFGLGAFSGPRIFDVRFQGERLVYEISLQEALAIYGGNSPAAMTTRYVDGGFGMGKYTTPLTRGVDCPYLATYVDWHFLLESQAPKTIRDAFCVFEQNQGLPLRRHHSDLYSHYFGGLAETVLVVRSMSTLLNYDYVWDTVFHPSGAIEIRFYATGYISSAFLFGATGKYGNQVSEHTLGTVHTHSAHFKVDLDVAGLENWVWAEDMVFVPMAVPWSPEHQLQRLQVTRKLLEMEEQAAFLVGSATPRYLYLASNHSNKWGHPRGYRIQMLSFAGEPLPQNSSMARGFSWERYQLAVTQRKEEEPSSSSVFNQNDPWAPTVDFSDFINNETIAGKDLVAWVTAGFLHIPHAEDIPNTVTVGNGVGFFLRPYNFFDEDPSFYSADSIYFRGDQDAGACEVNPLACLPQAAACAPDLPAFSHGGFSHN
Method: Recombinant CHO cells, overexpressing the human (1500 cells/well), mouse (1000 cells/well) or rat (500 cells/well) AOC3 enzyme are diluted in reaction buffer and added in a volume of 15 μL to the wells. After incubation for 20 minutes at 37° C., 2 μL of MAO substrate (dissolved in DMSO at 16 mM, adjusted to assay concentration in reaction buffer to a final assay concentration of 20 μM) is added and further incubated for 60 minutes at 37° C. The turnover of the substrate is determined by the addition of 20 μL of the detection-mix which was generated by the addition of reconstitution buffer with esterase (PROMEGA, #V1402) to the luciferine detection reagent (PROMEGA, #V1402).

[2] = biological target: T2, Diamine oxidase [copper-containing] (Homo sapiens, UniProt P19801); assay: AOC1 Biochemical Assay
T2 sequence (P19801 whole entry): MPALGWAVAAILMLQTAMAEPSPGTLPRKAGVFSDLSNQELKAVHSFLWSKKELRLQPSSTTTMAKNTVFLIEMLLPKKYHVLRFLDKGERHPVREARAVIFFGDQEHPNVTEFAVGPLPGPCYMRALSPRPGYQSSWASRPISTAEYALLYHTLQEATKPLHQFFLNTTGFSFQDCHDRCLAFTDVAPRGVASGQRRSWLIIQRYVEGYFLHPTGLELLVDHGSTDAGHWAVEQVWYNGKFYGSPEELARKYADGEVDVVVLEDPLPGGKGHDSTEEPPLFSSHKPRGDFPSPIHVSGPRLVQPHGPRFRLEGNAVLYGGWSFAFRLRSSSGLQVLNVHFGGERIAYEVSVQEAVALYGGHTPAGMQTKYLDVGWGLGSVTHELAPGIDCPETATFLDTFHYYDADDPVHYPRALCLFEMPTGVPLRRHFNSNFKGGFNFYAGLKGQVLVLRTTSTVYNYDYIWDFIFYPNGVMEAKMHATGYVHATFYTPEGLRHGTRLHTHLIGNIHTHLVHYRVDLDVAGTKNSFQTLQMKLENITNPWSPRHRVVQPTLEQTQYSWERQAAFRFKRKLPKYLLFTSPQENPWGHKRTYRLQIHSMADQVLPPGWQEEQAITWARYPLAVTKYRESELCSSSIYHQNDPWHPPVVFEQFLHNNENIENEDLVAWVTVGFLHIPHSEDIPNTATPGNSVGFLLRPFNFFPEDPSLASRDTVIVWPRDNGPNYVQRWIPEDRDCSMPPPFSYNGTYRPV
Method: An aliquot of 3 μL of the compound dilution is added to a 384 well plate (Optiplate, PS, flat bottom F, black, PERKIN ELMER, #6007270) in a DMSO concentration of 6.6%.An AOC1 enzyme aliquot (#8297-AO-010, R&D Systems) is thawed on ice, diluted in reaction buffer and added in a volume of 7 μL to the wells to give a final assay concentration of 1 ng/well. After incubation of inhibitor and enzyme for 30 minutes at 37° C., the enzymatic reaction is started with the addition of 10 μL of Amplex Red reaction mix (final assay concentration: 100 mM sodiumphosphate, 120 μM Amplex Red reagent (#A22177 Molecular Probes), 1.5 U/mL Horseradish Peroxidase (#P8375 Sigma-Aldrich), 200 μM putrescine (#P7505 Sigma-Alrdich), 0.05% Pluronic F-127 (#P3000MP Sigma-Aldrich), pH 7.4, 37° C.).After an incubation for 30 minutes at 37° C. the turnover of the substrate is determined directly (or after the addition of an excess of an amine-oxidase inhibitor) with a fluorescence reader (Ex 540 nm/Em 590 nm) like Envision 2104 Multilabel Reader (PERKIN ELMER).

[3] = biological target: T3, Amine oxidase [copper-containing] 2 (Homo sapiens, UniProt O75106); assay: AOC2 Biochemical Assay
T3 sequence (O75106 whole entry): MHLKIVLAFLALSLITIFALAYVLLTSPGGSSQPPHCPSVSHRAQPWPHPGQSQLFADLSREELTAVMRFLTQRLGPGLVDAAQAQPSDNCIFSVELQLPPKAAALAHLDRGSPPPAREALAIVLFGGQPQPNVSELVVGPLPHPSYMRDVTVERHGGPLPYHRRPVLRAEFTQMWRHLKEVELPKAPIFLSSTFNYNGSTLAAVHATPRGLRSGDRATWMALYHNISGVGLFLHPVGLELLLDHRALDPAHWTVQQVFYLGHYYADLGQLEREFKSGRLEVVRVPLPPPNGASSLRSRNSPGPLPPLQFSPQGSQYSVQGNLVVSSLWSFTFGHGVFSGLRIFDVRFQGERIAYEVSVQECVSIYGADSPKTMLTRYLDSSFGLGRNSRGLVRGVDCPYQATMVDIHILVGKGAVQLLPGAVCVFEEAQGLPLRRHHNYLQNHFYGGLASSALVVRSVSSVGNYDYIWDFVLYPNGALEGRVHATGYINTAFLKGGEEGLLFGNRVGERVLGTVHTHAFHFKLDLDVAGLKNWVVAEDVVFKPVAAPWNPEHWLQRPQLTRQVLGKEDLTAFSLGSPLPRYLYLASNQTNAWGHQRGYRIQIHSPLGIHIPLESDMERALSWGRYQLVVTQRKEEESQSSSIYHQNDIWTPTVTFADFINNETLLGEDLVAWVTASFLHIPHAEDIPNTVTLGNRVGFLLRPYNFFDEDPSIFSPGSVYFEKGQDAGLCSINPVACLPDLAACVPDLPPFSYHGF
Method: Cells are cultured for 3 days in EMEM culture medium containing 10% FCS (#04-00-1A, Biological Industries). After washing twice with ice cold PBS, cells are lysed by mechanic homogenation and cleared supernatants are shock frozen in liquid nitrogen and stored at −80° C.For the determination of AOC2 enzymatic activity cell lysates are thawed on ice and 1:1 diluted with reaction buffer. An Aliquot of 45 μL is added to the compound dilution and incubated for 30 min at 37° C.

CC(C)(O)NC(=O)[C@H]1CCN(S(=O)(=O)c2ccc(OC/C(=C/F)CN)nc2)C1 [US12178809, Example 05]
IC50 [1]: 73 nM | IC50 [2]: > 50000 nM | IC50 [3]: 629 nM
